Results published in patent US12528816B2, “Substituted imidazo [1,2-b] pyridazines and [1, 2, 4] triazolo [ 4,3-b] pyridazines as camkii inhibitors” (Cardurion Pharmaceuticals, INC., priority 2020, dated 2026).

target: T1, human CaMKIIδ (Homo sapiens, UniProt Q13557); experiment: Evaluation of in vitro CaMKII inhibitory activity (binding assay, TR-FRET); conditions: human CaMKIIδ, TR-FRET binding assay; class symbols A/B/C; read-out: Act (CaMKII inhibitory activity, binding assay)
T1 construct: Full-length, glutathione-S-transferase(GST)-tagged, human CaMKIIδ was purchased from Carna Biosciences; purchased Carna Biosciences (CaMKIIδ); Wako Pure Chemical Industries (calmodulin) 02-111
In short: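 Inhibitors, in eight concentrations of 4-fold dilution, were incubated 1 h at room temperature with a protein–fluorescent probe premix preformed 30 min on ice, containing calmodulin and terbium anti-GST antibody. Displacement read by TR-FRET in duplicate; IC50 by logistic fitting.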

Compound | IC50 [µM]
C[C@@H](Cn1cnnn1)Oc1cccc(-c2ccn3ncc(-c4cccc(C(=O)NCc5ccccc5)c4)c3n2)c1 [compound 91] | < 0.01
C[C@@H](Cn1cnnn1)Oc1cc(-c2ccc3ncc(-c4ccccc4C#N)n3n2)ccc1F [Example 121, 2-[6-(4-fluoro-3-{[(2S)-1-(1H-tetrazol-1-yl)propan-2-yl]oxy}phenyl)imidazo[1,2-b]pyridazin-3-yl]benzonitrile] | < 0.01
C[C@@H](Cn1cnnn1)Oc1cc(-c2ccn3ncc(-c4ccc(C#N)cc4)c3n2)ccc1F [compound 136] | 0.01 to 0.1
COCCCn1ncc(-c2cnc3ccc(-c4ccc(F)c(O[C@@H](C)Cn5cnnn5)c4)nn23)c1C#N [compound 223, 4-[6-(4-fluoro-3-{[(2S)-1-(1H-tetrazol-1-yl)propan-2-yl]oxy}phenyl)imidazo[1,2-b]pyridazin-3-yl]-1-(3-methoxypropyl)-1H-pyrazole-5-carbonitrile] | < 0.01
C[C@@H](Cn1cnnn1)Oc1cc(-c2ccn3ncc(-c4cn(C)nc4C#N)c3n2)ccc1F [compound 164] | < 0.01
C[C@@H](Cn1cnnn1)Oc1cc(-c2ccn3ncc(-c4ccccc4N4CCOCC4)c3n2)ccc1F [compound 48] | 0.01 to 0.1
C[C@@H](Cn1cnnn1)Oc1cc(-c2ccc3ncc(-c4cccc(OCC5CCNC5=O)c4C#N)n3n2)ccc1F (some centres unmarked) [compound 198] | < 0.01
C[C@@H](Cn1cnnn1)Oc1cc(-c2ccn3ncc(-c4cccc(Cl)c4)c3n2)ccc1F [compound 134] | < 0.01
C[C@@H](Cn1nnc(N)n1)Oc1cccc(-c2ccn3ncc(-c4cccs4)c3n2)c1 [compound 58] | > 0.1
CC(Cn1cnnn1)Oc1cc(-c2ccc3ncc(-c4cccc(OC5CCC(N6CC(C)OC(C)C6)CC5)c4C#N)n3n2)ccc1F [compound 195, 2-[6-(4-fluoro-3-{[(2S)-1-(1H-tetrazol-1-yl)propan-2-yl]oxy}phenyl)imidazo[1,2-b]pyridazin-3-yl]-6-{[(1r,4r)-4-[(2R,6S)-2,6-dimethylmorpholin-4-yl]cyclohexyl]oxy}benzonitrile] | < 0.01
C[C@@H](Cn1cnnn1)Oc1cc(-c2ccc3ncc(-c4cccc(OCC5CCN(C)C5)c4C#N)n3n2)ccc1F (some centres unmarked) [compound 201] | < 0.01
CC(=O)N1CCN(c2ccc(-c3cnn4ccc(-c5ccc(F)c(O[C@@H](C)Cn6cnnn6)c5)nc34)cc2)CC1 [compound 42] | 0.01 to 0.1
C[C@@H](Cn1cnnn1)Oc1cccc(-c2ccn3ncc(-c4cccc(C(=O)N5CCC(O)CC5)c4)c3n2)c1 [compound 89] | 0.01 to 0.1
C[C@@H](Cn1cnnn1)Oc1cc(-c2ccn3ncc(-c4cccc(C(F)(F)F)c4)c3n2)ccc1F [compound 130] | 0.01 to 0.1
C[C@@H](Cn1cnnn1)Oc1cc(-c2ccc3ncc(-c4cccc(OCC(F)F)c4C#N)n3n2)ccc1F [compound 206] | < 0.01
C[C@@H](Cn1cnnn1)Oc1cc(-c2ccn3ncc(-c4cccnc4C#N)c3n2)ccc1F [compound 137] | < 0.01
CCN(CC)CCCNC(=O)c1cccc(-c2cnn3ccc(-c4cccc(O[C@@H](C)Cn5cnnn5)c4)nc23)c1 [compound 69] | < 0.01
C[C@@H](Cn1cnnn1)Oc1cccc(-c2ccn3ncc(-c4cccc(C(=O)NCC5CCOCC5)c4)c3n2)c1 [compound 100] | < 0.01
COc1ccnc(-c2cnc3ccc(-c4ccc(F)c(N[C@@H](C)Cn5cnnn5)c4)nn23)c1C#N [Example 478, 2-[6-(4-fluoro-3-{[(2S)-1-(1H-tetrazol-1-yl)propan-2-yl]amino}phenyl)imidazo[1,2-b]pyridazin-3-yl]-4-methoxypyridine-3-carbonitrile] | < 0.01
C[C@@H](Cn1cnnn1)Oc1cc(-c2ccc3ncc(-c4cccc(OCCCC(=O)O)c4C#N)n3n2)ccc1F [compound 217] | < 0.01
C[C@@H](Cn1cnnn1)Oc1cc(-c2ccn3ncc(-c4ccnn4C)c3n2)ccc1F [compound 24] | 0.01 to 0.1

same assay, conditions: in vitro CaMKII inhibitory activity (binding assay), human CaMKIIδ; read-out: Act

Compound | IC50 [µM]
C[C@@H](Cn1cnnn1)Oc1cccc(-c2ccc3ncc(-c4cccc(C(C)(F)F)c4C#N)n3n2)c1 [Example 427, 2-(1,1-difluoroethyl)-6-[6-(3-{[(2S)-1-(1H-tetrazol-1-yl)propan-2-yl]oxy}phenyl)imidazo[1,2-b]pyridazin-3-yl]benzonitrile] | < 0.01
C[C@@H](Cn1cnnn1)Oc1cccc(-c2ccc3ncn(-c4cccc(Cl)c4C#N)c3n2)n1 [compound 453] | 0.01 to 0.1
C[C@@H](Cn1cnnn1)Oc1cccc(-c2ccc3ncc(-c4cnccc4C#N)n3n2)c1 [Example 251, 3-[6-(3-{[(2S)-1-(1H-tetrazol-1-yl)propan-2-yl]oxy}phenyl)imidazo[1,2-b]pyridazin-3-yl]pyridine-4-carbonitrile] | < 0.01
C[C@@H](Cn1cnnn1)Oc1cccc(-c2ccc3ncc(-c4ccccc4C#N)n3n2)n1 [compound 425, 2-[6-(6-{[(2S)-1-(1H-tetrazol-1-yl)propan-2-yl]oxy}pyridin-2-yl)imidazo[1,2-b]pyridazin-3-yl]benzonitrile] | < 0.01
C[C@@H](Cn1cnnn1)Oc1cccc(-c2ccc3ncc(-c4cnccn4)n3n2)c1 [compound 283] | < 0.01
C[C@@H](Cn1cnnn1)Oc1cccc(-c2ccc3ncn(-c4cccc(C(F)F)c4C#N)c3n2)c1 [compound 395] | < 0.01
COc1cnc(C#N)c(-c2cnc3ccc(-c4cccc(O[C@@H](C)Cn5cnnn5)c4)nn23)n1 [compound 285] | < 0.01
C[C@@H](Cn1cnnn1)Oc1cccc(-c2ccc3ncn(-c4cc(F)ccc4C#N)c3n2)n1 [Example 345, 4-fluoro-2-[5-(6-{[(2S)-1-(1H-tetrazol-1-yl)propan-2-yl]oxy}pyridin-2-yl)-3H-imidazo[4,5-b]pyridin-3-yl]benzonitrile] | < 0.01
C[C@@H](Cn1cnnn1)Oc1cc(-c2ccc3ncn(-c4ncccc4C#N)c3n2)ccc1Cl [compound 368] | 0.01 to 0.1
C[C@@H](Cn1cnnn1)Oc1cccc(-c2ccc3ncc(-c4ccccc4C#N)n3n2)c1 [Example 239, 2-[6-(3-{[(2S)-1-(1H-tetrazol-1-yl)propan-2-yl]oxy}phenyl)imidazo[1,2-b]pyridazin-3-yl]benzonitrile] | < 0.01
C[C@@H](Cn1cnnn1)Oc1cc(-c2ccc3ncc(-c4ncccc4C#N)n3n2)ccc1F [Example 247, 2-[6-(4-fluoro-3-{[(2S)-1-(1H-tetrazol-1-yl)propan-2-yl]oxy}phenyl)imidazo[1,2-b]pyridazin-3-yl]pyridine-3-carbonitrile] | < 0.01
COc1cncc(-c2cnc3ccc(-c4ccc(F)c(O[C@@H](C)Cn5cnnn5)c4)nn23)c1C#N [compound 470] | < 0.01
COc1ccnc(-c2cnc3ccc(-c4cncc(O[C@@H](C)Cn5cnnn5)n4)nn23)c1C#N [compound 429] | > 0.1
COc1cc(Cl)cc(-n2cnc3ccc(-c4cccc(O[C@@H](C)Cn5cnnn5)n4)nc32)c1C#N [compound 454] | < 0.01
C[C@@H](Cn1cnnn1)Oc1cccc(-c2ccc3ncc(-c4ncc(F)cc4C#N)n3n2)c1 [compound 450] | < 0.01
C[C@@H](Cn1cnnn1)Oc1cccc(-c2ccc3ncc(-c4nccc(N5CCCC5)c4C#N)n3n2)c1 [compound 363] | 0.01 to 0.1
C[C@@H](Cn1cnnn1)Oc1cccc(-c2ccc3ncc(-c4cccc(OC(F)F)c4C#N)n3n2)c1 [Example 412, 2-(difluoromethoxy)-6-[6-(3-{[(2S)-1-(1H-tetrazol-1-yl)propan-2-yl]oxy}phenyl)imidazo[1,2-b]pyridazin-3-yl]benzonitrile] | < 0.01
